Species: Rattus norvegicus
Experiment: Open TG-GATES - Regimen: Daily Repeat
Format: toxicity, organism-based, Sprague-Dawley
Design: regimen Daily Repeat, gender Male, age 6 weeks
Conditions: in vivo, po, 0 mg/kg, route gavage, dose level Control; for APTT / Bas / Eos / Fbg / Hb / Ht / Lym / MCH / MCHC / MCV / Mono / Neu / PT / Plat / RBC / Ret / WBC: tissue Blood; for KIDNEY_L / KIDNEY_R / KIDNEY_TOTAL: tissue Kidney; for LIVER: tissue Liver; for A/G / ALP / ALT / AST / BUN / CRE / Ca / Cl / DBIL / GLC / IP / K / LDH / Na / PL / RALB / TBIL / TC / TG / TP / gamma-GTP: tissue Plasma

SMILES: CCOC(=O)CCC(=O)O[C@H]1[C@H](O[C@@H]2[C@@H](C)[C@H](O[C@H]3C[C@@](C)(OC)[C@@H](O)[C@H](C)O3)[C@@H](C)C(=O)O[C@H](CC)[C@@](C)(O)[C@H](O)[C@@H](C)C(=O)[C@H](C)C[C@@]2(C)O)O[C@H](C)C[C@@H]1N(C)C [ERYTHROMYCIN ETHYLSUCCINATE]
- TERMINAL_BW (72 h, time 3 day): 237.5 g
- APTT (72 h, time 3 day): 21.3 s
- Bas (72 h, time 3 day): 0%
- Eos (72 h, time 3 day): 1%
- Fbg (72 h, time 3 day): 295.4 mg/dL
- Hb (72 h, time 3 day): 13.4 g/dL
- Ht (72 h, time 3 day): 39.6%
- Lym (72 h, time 3 day): 78.6%
- MCH (72 h, time 3 day): 21.3 pg
- MCHC (72 h, time 3 day): 33.7%
- MCV (72 h, time 3 day): 63 fL
- Mono (72 h, time 3 day): 3.4%
- Neu (72 h, time 3 day): 16.2%
- PT (72 h, time 3 day): 16.3 s
- Plat (72 h, time 3 day): 124.3 x10_4/uL
- RBC (72 h, time 3 day): 628.8 x10_4/ul
- Ret (72 h, time 3 day): 6.2%
- WBC (72 h, time 3 day): 96.6 x10_2/uL
- KIDNEY_L (72 h, time 3 day): 1.1 g
- KIDNEY_R (72 h, time 3 day): 1.1 g
- KIDNEY_TOTAL (72 h, time 3 day): 2.1 g
- LIVER (72 h, time 3 day): 10.7 g
- A/G (72 h, time 3 day): 1.2
- ALP (72 h, time 3 day): 1575.2 IU/L
- ALT (72 h, time 3 day): 38.2 IU/L
- AST (72 h, time 3 day): 68.6 IU/L
- BUN (72 h, time 3 day): 17.8 mg/dL
- CRE (72 h, time 3 day): 0.2 mg/dL
- Ca (72 h, time 3 day): 10.1 mg/dL
- Cl (72 h, time 3 day): 107.6 meq/L
- DBIL (72 h, time 3 day): 0 mg/dL
- GLC (72 h, time 3 day): 198.2 mg/dL
- IP (72 h, time 3 day): 6.6 mg/dL
- K (72 h, time 3 day): 4.3 meq/L
- LDH (72 h, time 3 day): 181.8 IU/L
- Na (72 h, time 3 day): 141 meq/L
- PL (72 h, time 3 day): 139.8 mg/dL
- RALB (72 h, time 3 day): 2.9 g/dL
- TBIL (72 h, time 3 day): 0.016 mg/dL
- TC (72 h, time 3 day): 71.4 mg/dL
- TG (72 h, time 3 day): 91 mg/dL
- TP (72 h, time 3 day): 5.4 g/dL
- gamma-GTP (72 h, time 3 day): 1.2 IU/L
- TERMINAL_BW ([…], time 7 day): 272.7 g
- TERMINAL_BW ([…], time 14 day): 330.3 g
- TERMINAL_BW ([…], time 28 day): 372.4 g
- APTT ([…], time 7 day): 20.5 s
- Bas ([…], time 7 day): 0%
- Eos ([…], time 7 day): 1%
- Fbg ([…], time 7 day): 307.2 mg/dL
- Hb ([…], time 7 day): 14.1 g/dL
- Ht ([…], time 7 day): 41.9%
- Lym ([…], time 7 day): 78.2%
- MCH ([…], time 7 day): 21 pg
- MCHC ([…], time 7 day): 33.6%
- MCV ([…], time 7 day): 62.4 fL
- Mono ([…], time 7 day): 2.4%
- Neu ([…], time 7 day): 17.4%
- PT ([…], time 7 day): 16.6 s
- Plat ([…], time 7 day): 119.4 x10_4/uL
- RBC ([…], time 7 day): 673.2 x10_4/ul
- Ret ([…], time 7 day): 6.2%
- WBC ([…], time 7 day): 121.5 x10_2/uL
- APTT ([…], time 14 day): 22.3 s
- Bas ([…], time 14 day): 0%
- Eos ([…], time 14 day): 1%
- Fbg ([…], time 14 day): 317.8 mg/dL
- Hb ([…], time 14 day): 13.9 g/dL
- Ht ([…], time 14 day): 40.4%
- Lym ([…], time 14 day): 80.2%
- MCH ([…], time 14 day): 21.2 pg
- MCHC ([…], time 14 day): 34.5%
- MCV ([…], time 14 day): 61.5 fL
- Mono ([…], time 14 day): 2.4%
- Neu ([…], time 14 day): 14.8%
- PT ([…], time 14 day): 16.3 s
- Plat ([…], time 14 day): 104.3 x10_4/uL
- RBC ([…], time 14 day): 656.6 x10_4/ul
- Ret ([…], time 14 day): 5.2%
- WBC ([…], time 14 day): 110.8 x10_2/uL
- APTT ([…], time 28 day): 24.4 s
- Bas ([…], time 28 day): 0%
- Eos ([…], time 28 day): 1%
- Fbg ([…], time 28 day): 317.2 mg/dL
- Hb ([…], time 28 day): 15.2 g/dL
- Ht ([…], time 28 day): 44%
- Lym ([…], time 28 day): 81.8%
- MCH ([…], time 28 day): 19.4 pg
- MCHC ([…], time 28 day): 34.6%
- MCV ([…], time 28 day): 56.2 fL
- Mono ([…], time 28 day): 2.8%
- Neu ([…], time 28 day): 13%
- PT ([…], time 28 day): 16.4 s
- Plat ([…], time 28 day): 99.6 x10_4/uL
- RBC ([…], time 28 day): 783.8 x10_4/ul
- Ret ([…], time 28 day): 2.7%
- WBC ([…], time 28 day): 109.9 x10_2/uL
- KIDNEY_L ([…], time 7 day): 1.1 g
- KIDNEY_R ([…], time 7 day): 1.1 g
- KIDNEY_TOTAL ([…], time 7 day): 2.2 g
- KIDNEY_L ([…], time 14 day): 1.3 g
- KIDNEY_R ([…], time 14 day): 1.3 g
- KIDNEY_TOTAL ([…], time 14 day): 2.6 g
- KIDNEY_L ([…], time 28 day): 1.4 g
- KIDNEY_R ([…], time 28 day): 1.4 g
- KIDNEY_TOTAL ([…], time 28 day): 2.8 g
- LIVER ([…], time 7 day): 12.3 g
- LIVER ([…], time 14 day): 14.7 g
- LIVER ([…], time 28 day): 14.6 g
- A/G ([…], time 7 day): 1.1
- ALP ([…], time 7 day): 1670.4 IU/L
- ALT ([…], time 7 day): 43 IU/L
- AST ([…], time 7 day): 72.2 IU/L
- BUN ([…], time 7 day): 20.4 mg/dL
- CRE ([…], time 7 day): 0.2 mg/dL
- Ca ([…], time 7 day): 10.7 mg/dL
- Cl ([…], time 7 day): 107.6 meq/L
- DBIL ([…], time 7 day): 0 mg/dL
- GLC ([…], time 7 day): 216.8 mg/dL
- IP ([…], time 7 day): 7.3 mg/dL
- K ([…], time 7 day): 4.3 meq/L
- LDH ([…], time 7 day): 201.8 IU/L
- Na ([…], time 7 day): 141.2 meq/L
- PL ([…], time 7 day): 155.2 mg/dL
- RALB ([…], time 7 day): 2.9 g/dL
- TBIL ([…], time 7 day): 0 mg/dL
- TC ([…], time 7 day): 70.8 mg/dL
- TG ([…], time 7 day): 133.4 mg/dL
- TP ([…], time 7 day): 5.6 g/dL
- gamma-GTP ([…], time 7 day): 1.4 IU/L
- A/G ([…], time 14 day): 1.1
- ALP ([…], time 14 day): 1330.4 IU/L
- ALT ([…], time 14 day): 46.6 IU/L
- AST ([…], time 14 day): 76 IU/L
- BUN ([…], time 14 day): 21 mg/dL
- CRE ([…], time 14 day): 0.2 mg/dL
- Ca ([…], time 14 day): 10.5 mg/dL
- Cl ([…], time 14 day): 105.2 meq/L
- DBIL ([…], time 14 day): 0 mg/dL
- GLC ([…], time 14 day): 207.2 mg/dL
- IP ([…], time 14 day): 7.1 mg/dL
- K ([…], time 14 day): 4.5 meq/L
- LDH ([…], time 14 day): 208.6 IU/L
- Na ([…], time 14 day): 141.4 meq/L
- PL ([…], time 14 day): 153.4 mg/dL
- RALB ([…], time 14 day): 2.9 g/dL
- TBIL ([…], time 14 day): 0 mg/dL
- TC ([…], time 14 day): 73 mg/dL
- TG ([…], time 14 day): 135.2 mg/dL
- TP ([…], time 14 day): 5.7 g/dL
- gamma-GTP ([…], time 14 day): 2.2 IU/L
- A/G ([…], time 28 day): 1.1
- ALP ([…], time 28 day): 1212.8 IU/L
- ALT ([…], time 28 day): 45.8 IU/L
- AST ([…], time 28 day): 71.6 IU/L
- BUN ([…], time 28 day): 19.6 mg/dL
- CRE ([…], time 28 day): 0.2 mg/dL
- Ca ([…], time 28 day): 10.4 mg/dL
- Cl ([…], time 28 day): 106.6 meq/L
- DBIL ([…], time 28 day): 0 mg/dL
- GLC ([…], time 28 day): 189.4 mg/dL
- IP ([…], time 28 day): 6.2 mg/dL
- K ([…], time 28 day): 4.1 meq/L
- LDH ([…], time 28 day): 130.6 IU/L
- Na ([…], time 28 day): 141 meq/L
- PL ([…], time 28 day): 135.8 mg/dL
- RALB ([…], time 28 day): 3 g/dL
- TBIL ([…], time 28 day): 0.01 mg/dL
- TC ([…], time 28 day): 62 mg/dL
- TG ([…], time 28 day): 118.4 mg/dL
- TP ([…], time 28 day): 5.9 g/dL
- gamma-GTP ([…], time 28 day): 2.8 IU/L

— ChEMBL document CHEMBL3885861, “Open TG-GATES”
